Data from the Kinase Knowledgebase extract (Sharma et al. 2016).

What follows are compounds tested against EGFR (murine) (UniProt P00533). Details: nih3t3/c7.
Sequence of EGFR (murine) (P00533 whole entry, looked up): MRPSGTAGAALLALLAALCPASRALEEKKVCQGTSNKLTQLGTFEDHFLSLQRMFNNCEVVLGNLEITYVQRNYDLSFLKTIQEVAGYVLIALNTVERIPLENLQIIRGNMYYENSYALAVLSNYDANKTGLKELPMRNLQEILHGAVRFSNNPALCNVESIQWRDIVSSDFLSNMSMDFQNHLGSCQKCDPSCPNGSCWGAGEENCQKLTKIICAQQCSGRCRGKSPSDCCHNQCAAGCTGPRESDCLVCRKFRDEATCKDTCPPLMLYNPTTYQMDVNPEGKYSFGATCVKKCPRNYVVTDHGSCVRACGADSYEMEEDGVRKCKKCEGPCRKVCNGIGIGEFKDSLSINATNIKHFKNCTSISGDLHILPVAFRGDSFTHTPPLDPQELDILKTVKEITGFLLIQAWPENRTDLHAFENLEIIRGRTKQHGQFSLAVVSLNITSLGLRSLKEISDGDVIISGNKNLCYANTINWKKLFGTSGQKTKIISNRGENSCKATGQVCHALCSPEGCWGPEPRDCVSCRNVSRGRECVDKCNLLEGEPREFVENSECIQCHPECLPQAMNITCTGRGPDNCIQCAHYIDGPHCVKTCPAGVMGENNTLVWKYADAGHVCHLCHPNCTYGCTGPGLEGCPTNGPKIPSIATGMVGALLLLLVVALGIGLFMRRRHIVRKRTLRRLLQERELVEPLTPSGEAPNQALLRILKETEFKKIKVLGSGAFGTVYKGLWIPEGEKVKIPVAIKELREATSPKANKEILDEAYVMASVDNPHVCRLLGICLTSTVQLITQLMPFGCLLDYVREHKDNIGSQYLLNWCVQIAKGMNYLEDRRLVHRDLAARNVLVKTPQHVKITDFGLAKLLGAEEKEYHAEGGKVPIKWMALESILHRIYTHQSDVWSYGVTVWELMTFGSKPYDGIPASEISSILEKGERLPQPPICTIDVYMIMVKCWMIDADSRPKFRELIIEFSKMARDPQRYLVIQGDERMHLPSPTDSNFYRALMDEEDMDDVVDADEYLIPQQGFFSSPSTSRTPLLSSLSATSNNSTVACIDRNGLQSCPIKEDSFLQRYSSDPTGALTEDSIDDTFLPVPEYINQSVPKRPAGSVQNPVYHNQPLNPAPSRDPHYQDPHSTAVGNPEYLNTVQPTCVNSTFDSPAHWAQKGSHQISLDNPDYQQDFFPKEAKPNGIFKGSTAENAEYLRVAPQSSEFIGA
COc1ccc2c(c1)C(CC(=O)O)C/C2=C1/C(=O)Nc2ccccc21 (centres undefined) gave an IC50 greater than 100 µM. O=C1Nc2ccccc2/C1=C1\CCc2ccccc21 showed an IC50 greater than 100 µM.

What follows are compounds tested against EGFR (UniProt P00533). Details: not given.
Sequence of EGFR (P00533 whole entry, looked up): as above
With CC1C/C(=C2/C(=O)Nc3ccccc32)c2ccccc21 (centres undefined) the IC50 was greater than 100 µM. For O=C1Nc2ccccc2/C1=C1\CCc2cc(Br)ccc21, the IC50 was greater than 100 µM. For COc1ccc2c(c1)/C(=C1\C(=O)Nc3ccccc31)CC2, the IC50 was greater than 100 µM. Work on COc1ccc2c(c1)C(CC(=O)O)C/C2=C1/C(=O)Nc2ccccc21 (centres undefined) yielded an IC50 greater than 100 µM. In the case of O=C1Nc2ccccc2/C1=C1\CCc2ccccc21, the IC50 is reported as greater than 100 µM. O=C1Nc2ccccc2/C1=C1\CCc2cc(Cl)ccc21 was tested, and the IC50 was greater than 100 µM. Work on Cc1cccc2c1CC/C2=C1/C(=O)Nc2ccccc21 yielded an IC50 greater than 100 µM. Nc1ccc2c(c1)CC/C2=C1/C(=O)Nc2ccccc21 gave an IC50 greater than 100 µM. With COc1cc2c(cc1OC)/C(=C1\C(=O)Nc3ccccc31)CC2 the IC50 was greater than 25 µM. Work on CN(C)c1ccc2c(c1)CC/C2=C1/C(=O)Nc2ccccc21 yielded an IC50 greater than 100 µM. Compound COc1ccc2c(c1)CC/C2=C1/C(=O)Nc2ccccc21 has an IC50 greater than 100 µM. O=C1Nc2ccccc2/C1=C1\CCc2cc(N3CCCCC3)ccc21 gave an IC50 greater than 100 µM.
